Assays:
[1] = test system: inflammasome / IL-1β release in THP1 cell line; test: IL-1β release from LPS-primed, nigericin-activated THP1 cells (ELISA); type: cell-based, human; details: for potency in the screen of NBC molecules (effect on IL-1β release): 10 μM compound, 15 min before nigericin (20 μM, 1 h), LPS-primed THP1 cells, normalised to nigericin-induced IL-1β release
Description: Data are the mean±SD of at least 4 separate experiments.
To screen the compounds of the invention, the human monocytic THP1 cell line was used. Cells were primed with LPS (1 μg/ml, 4 h) and then treated with vehicle (0.5% DMSO) or NBC molecule of the invention (see compounds listed below) at 10 μM for 15 min before activation of the inflammasome and IL-1β release with nigericin (20 μM, 1 h). The NBC molecule was present throughout nigericin stimulation. The effects of the molecules on IL-1β release were normalised to nigericin-induced IL-1β release in the absence of any inhibitor (FIGS. 1-3).

CC(=O)C1=C(C(Cl)(Cl)Cl)N[B-](c2ccccc2)(c2ccccc2)[O+]=C1NCc1ccc2ccc3cccc4ccc1c2c34
melting point: 167 to 169 °C (dec.)

CC(=O)C1=C(C(Cl)(Cl)Cl)N[B-](c2ccccc2)(c2ccccc2)[O+]=C1N [compound 14, (Z)-2-Acetyl-3-amino-4,4,4-trichlorobut-2-enamide diphenylboron]
potency in the screen of NBC molecules (effect on IL-1β release) [1]: most potent
IC50 ([1]; Homo sapiens, THP-1, THP1 cells, LPS primed, nigericin stimulated, FIG. 3): 500 nM

CC1=[O+][B-](c2ccccc2)(c2ccccc2)NC(C(Cl)(Cl)Cl)=C1C(=O)OC(C)(C)C [compound 41, 5-(tert-Butoxycarbonyl)-2,2-di phenyl-6-methyl-4-(trichloromethyl)-2,3-dihydro-1,3,2-oxazaborinin-1-ium-2-uide]
melting point: 147 to 149 °C

NC(=O)C1=C(C(Cl)(Cl)Cl)N[B-](c2ccccc2)(c2ccccc2)[O+]=C1N [compound 42, 6-Amino-5-carbamoyl-2,2-diphenyl-4-(trichloromethyl)-2,3-dihydro-1,3,2-oxazaborinin-1-ium-2-uide]
potency in the screen of NBC molecules (effect on IL-1β release) [1]: most potent

CC(=O)C1=C(C(Cl)(Cl)Cl)N[B-](c2ccccc2)(c2ccccc2)[O+]=C1NC1CCCCC1 [compound 48, 5-Acetyl-6-(cyclohexylamino)-2,2-diphenyl-4-(trichloromethyl)-2,3-dihydro-1,3,2-oxazaborinin-1-ium-2-uide]
potency in the screen of NBC molecules (effect on IL-1β release) [1]: most potent
melting point: 53 to 54 °C

CC(=O)C1=C(C(Cl)(Cl)Cl)N[B-](c2ccc(C)cc2)(c2ccc(C)cc2)[O+]=C1N [compound 57, 5-Acetyl-6-amino-2,2-bis(p-tolyl)-4-(trichloromethyl)-2,3-dihydro-1,3,2-oxazaborinin-1-ium-2-uide]
melting point: 145 to 148 °C (dec.)

CC(=O)C1=C(C(Cl)(Cl)Cl)N[B-](c2ccccc2)(c2ccc(C)cc2)[O+]=C1N (stereo not drawn) [compound 59, 5-Acetyl-6-amino-2-(phenyl)-2-(p-tolyl)-4-(trichloromethyl)-2,3-dihydro-1,3,2-oxazaborinin-1-ium-2-uide]
melting point: 141 to 143 °C

Source: patent publication US10570157B2, “Cyclic diarylboron derivatives as NLRP3 inflammasome inhibitors” (The University of Manchester, priority 2015, dated 2020)
